Legend:
[1] = system: gfp-luc2-labelled PDX cells (NPC), subcutaneous model; assay: Drug testing in subcutaneous tumour model of gfp-luc2-labelled PDX; type: in vivo, NSG mice; settings: 2 mg/kg i.p. weekly for 3 weeks, bioluminescence imaging
Description: (§1) All experiments were performed in accordance with national regulations and were approved by the AC UC of Ministry of Health, Malaysia. NSG mice, 6-8 weeks old were anaesthetized using Ketamine-Xylazine (100 mg/ml and 10 mg/ml).
(§2) To test the effect of drug on tumour growth inhibition, subcutaneous and/or metastatic model were used. For subcutaneous model, 2×10^5 cells of gfp-luc2 cells were resuspended in RPMI and mixed with matrigel at 1:1 ratio and injected into the right flank. For metastatic model, 2×10^5 cells of gfp-luc2 cells were resuspended in 100 μl of RPMI and injected into left ventricle. Weekly bioluminescence imaging (BLI) were carried out to monitor the progress of tumour growth using VIS Spectrum.
(§3) When tumour volume reached to 50-150 mm^3 or once the signal intensity reached 1×10^4 (average radiance, p/sec/cm^2/sr) mice were randomised into control or treatment group. Treatment commenced 35 days post inoculation. Mice were treated with vehicle (0.9% NaCl) or cisplatin (2 mg/kg) via intraperitoneal (i.p.) injection, weekly for 3 weeks. Tumour volume was measured thrice weekly using callipers and BLI was carried out weekly. Mice were observed daily for general wellbeing and tumour burden.

[2] = system: gfp-luc2-labelled PDX cells (NPC), metastatic model; assay: Drug testing in metastatic tumour model of gfp-luc2-labelled PDX (intra-cardiac injection); type: in vivo, NSG mice; settings: metastatic model (left ventricle injection); 2 mg/kg i.p. weekly for 3 weeks; bioluminescence imaging
Description: as §1, §2, §3

For `N.N.[Cl][Pt][Cl]` [cisplatin], the “tumour response as measured by the luminescence signals intensity” value [1] was “tumour regression” and the “tumour response as measured by the luminescence signals intensity” value [2] was “tumour regression”.
